Experimental data as given in patent US11180522B2, “Disulfide-linked reversible terminators” (Centrillion Technology Holdings Corporation, priority 2015, dated 2021).

What was measured:
Bst polymerase [1] = settings: "runaway" reaction with Bst polymerase, 100 uM dNTPs, 37° C., before TCEP treatment
Protocol: For reactions with Bst large fragment (NEB), 40 uL of hybridized beads were resuspended in 22.5 uL of reaction mixture (40 mM Tris-HCl pH8.8, 20 mM ammonium sulfate, 20 mM KCl, 0.2% Triton X-100, 2 mM MgSO4, 40 U Bst). Reactions were pre-warmed to 37° C. for one minute before adding 2.5 uL of 1 mM dNTPs (NEB) (for a final concentration of 100 uM). After five minutes at 37° C., reactions were quenched with 40 μL RB. Beads were washed with 40 μL RB and SP_T was eluted with 0.1N NaOH for 10 minutes at room temperature then neutralized with 1.5 uL Tris-HCl pH8.0.
Denaturing PAGE: An equal volume of 2×TBE-Urea Sample Buffer (Novex, Thermo Fisher) was added to samples before heat-denaturation for five minutes at 85° C. 10 μL sample and a 10 bp ladder (TrackIt, Invitrogen) on a 15% TBE-Urea PAGE gel (Novex, Thermo Fisher) in 1×TBE for two hours at 160V. Gels were imaged for fluorescence before staining and again after staining with SYBR Gold (Thermo) on an AlphaImager 3400.

DNA polymerase CENT1 = test: Primer extension assay with DNA polymerase CENT1; format: biochemical; settings: 2 uM nucleotide, 45° C., one minute, denaturing PAGE
Protocol: (§1) Oligo Preparation: Oligos were purchased from IDT and stored at 500 uM in nuclease-free water: A biotinylated target sequence (Biot_Primer1_Capt, 5′-/5Biosg/[…] TTTCAG-3′ (SEQ ID NO: 1)) and a sequencing primer (SP_T, 5′-[…]-3′ (SEQ ID NO: 2)). 8 nmol of the biotinylated template sequence was conjugated to streptavidin-coated magnetic beads (T1 Dynabeads, Invitrogen) for one hour at room temperature in a solution containing 1M NaCl, 10 mM Tris-HCl pH7.5, 1 mM EDTA. Beads were washed three times with wash buffer at 60° C. (0.64×SSC, 0.016% SDS) to remove unbound primer and stored in 800 μL reaction binding buffer, RB, (1M NaCl, 25 mM Tris-HCl pH7.5, 0.01% TWEEN20) at 4° C. To hybridize the sequencing primer to the template, 100 uL of conjugated beads were incubated with a saturating amount of SP_T (2.5 nmol) in 200 μL RB at 70° C. for five minutes, 55° C. for 15 minutes, then 25° C. for 5 minutes. Hybridized beads were stored in 360 uL RB at room temperature.

Bst polymerase [2] = settings: incubation with 100 mM TCEP pH9.0, 65° C., 30 minutes
Protocol: Primer extension: For reactions with CENT1 enzyme, the enzyme was boiled for 5 minutes at 95° C. before use. 40 uL of hybridized beads were resuspended in 22.5 uL of reaction mixture (40 mM Tris-HCl pH8.8, 20 mM ammonium sulfate, 20 mM KCl, 0.2% Triton X-100, 2 mM MgSO4, 1.5 ug CENT1). Reactions were pre-warmed to 45° C. for one minute before adding 2.5 uL of 20 uM nucleotide (for a final concentration of 2 uM). After one minute of incorporation, reactions were quenched with 40 μL RB. Beads were washed with 40 μL RB and either resuspended in a new reaction mixture for further incorporation events or SP_T was eluted with 0.1 N NaOH for 10 minutes at room temperature then neutralized with 1.5 uL Tris-HCl pH8.0. For reactions with Bst large fragment (NEB), 40 uL of hybridized beads were resuspended in 22.5 uL of reaction mixture (40 mM Tris-HCl pH8.8, 20 mM ammonium sulfate, 20 mM KCl, 0.2% Triton X-100, 2 mM MgSO4, 40 U Bst). Reactions were pre-warmed to 37° C. for one minute before adding 2.5 uL of 1 mM dNTPs (NEB) (for a final concentration of 100 uM). After five minutes at 37° C., reactions were quenched with 40 μL RB. Beads were washed with 40 μL RB and SP_T was eluted with 0.1N NaOH for 10 minutes at room temperature then neutralized with 1.5 uL Tris-HCl pH8.0.
Cleavage of Reversible Terminators: After incorporation of reversible terminators, beads were resuspended in 100 mM TCEP pH9.0 (Gold Bio) and incubated at 65° C. for 30 minutes before quenching with 100 μL RB. Beads were washed with 40 μL RB and either resuspended in a new reaction mixture for further incorporation events or SP_T was eluted with 0.1N NaOH for 10 minutes at room temperature then neutralized with 1.5 uL Tris-HCl pH8.0.

[3] = tested on: enhanced DNA polymerase (EDP); test: Primer extension assay with enhanced DNA polymerase (EDP); format: biochemical; settings: denaturing PAGE, FIG. 12
Protocol: as §1

| Molecule | Blocking of further extension after terminator incorporation (Bst polymerase [1]) | Primer extension (incorporation of the terminator into the growing DNA chain) catalyzed by CENT1 (DNA polymerase CENT1) | De-blocking (removal of 3′-azidomethyl cap, extension resumes) (Bst polymerase [2]) | Primer extension (incorporation of the terminator) catalyzed by EDP [3] |
| --- | --- | --- | --- | --- |
| 3′-O-azidomethyl-5-(Alexa530-dithiolinker-carbamate)-dUTP [compound 34] | Blocking of further extension after terminator incorporation is observed | extension was catalyzed | De-blocking was accomplished | – |
| CC(C)(C)OC(=O)NCCSSCCOC(=O)NCC#Cc1cn([C@H]2CC(OCN=[N+]=[N-])[C@@H](COP(=O)(O)OP(=O)(O)OP(=O)(O)O)O2)c(=O)[nH]c1=O (stereo partly drawn) [compound 31] | – | extension was catalyzed | De-blocking was accomplished | extension was catalyzed |
| [N-]=[N+]=NCOC1C[C@H](n2cc(C#CCNC(=O)OCCSSCCNC(=O)c3ccc(-c4c5ccc(=O)cc-5oc5cc(O)ccc45)c(C(=O)O)c3)c(=O)[nH]c2=O)O[C@@H]1COP(=O)(O)OP(=O)(O)OP(=O)(O)O (stereo partly drawn) [compound 33, 3′-O-azidomethyl-5-(Fluorescein-dithiolinker-cabamate)-2′-deoxyuridinetriphosphate] | Blocking of further extension after terminator incorporation is observed | extension was catalyzed | De-blocking was accomplished | – |
